Experimental data taken from paper PMC11178545, “Alkynyl nicotinamides show antileukemic activity in drug-resistant acute myeloid leukemia” (The Journal of Clinical Investigation, 2024).
Values joined by “and” are separate entries in the source; they are usually repeats but may differ in a detail not shown here. Equal values may be shown once.

How the values were obtained:
[1] = test system: BaF3 cells expressing FLT3ITD; experiment: BaF3 proliferation, colorimetric WST-1 assay; format: cell-based, murine; conditions: BaF3/FLT3 ITD, 48 hours, replicates, listed as Midostuarin
[2] = test system: BaF3 cells expressing FLT3ITD-D835Y; experiment: BaF3 proliferation, colorimetric WST-1 assay; conditions: BaF3/FLT3 ITD-D835Y, 48 hours, replicates
[3] = test system: BaF3 cells transduced with Flt3ITD/ITD, with IL3; experiment: BaF3 Flt3ITD/ITD proliferation in the presence of IL3 (Supplementary Figure 3A); conditions: replicates
[4] = concentration 0.016 (unit not given)
[5] = concentration 0.4 (unit not given)
[6] = concentration 2 (unit not given), listed as Midostuarin
[7] = concentration 10 (unit not given), listed as Midostuarin
[8] = concentration 50 (unit not given), listed as Midostuarin
[9] = concentration 250 (unit not given), listed as Midostuarin
[10] = concentration 1000 (unit not given), listed as Midostuarin

SMILES: CO[C@@H]1[C@H](N(C)C(=O)c2ccccc2)C[C@H]2O[C@]1(C)n1c3ccccc3c3c4c(c5c6ccccc6n2c5c31)C(=O)NC4 [Midostaurin]
- proliferation, colorimetric assay [1, 4]: 100.822 and 110.628 and 104.388
- proliferation, colorimetric assay ([1]; concentration 0.08 (unit not given)): 99.3158 and 113.294 and 110.094 and 38.1922
- proliferation, colorimetric assay [1, 5]: 103.096 and 110.499 and 104.386 and 61.929
- proliferation, colorimetric assay ([1]; concentration 2 (unit not given)): 104.186 and 115.142 and 102.467 and 142.341
- proliferation, colorimetric assay ([1]; concentration 10 (unit not given)): 37.6324 and 34.6342 and 45.0183 and 96.6129
- proliferation, colorimetric assay ([1]; concentration 50 (unit not given)): 6.377 and 12.3055 and 3.243 and 9.898
- proliferation, colorimetric assay ([1]; concentration 250 (unit not given)): 0.5457 and 1.807 and -0.6585 and 0.387
- proliferation, colorimetric assay [2, 4]: 103.305
- proliferation, colorimetric assay ([2]; concentration 0.08 (unit not given), listed as Midostuarin): 108.476 and 93.9081
- proliferation, colorimetric assay ([2]; concentration 0.4 (unit not given), listed as Midostuarin): 108.102 and 98.6805 and 100.719
- proliferation, colorimetric assay [2, 6]: 111.763 and 100.839 and 106.043
- proliferation, colorimetric assay [2, 7]: 46.6696 and 71.6598 and 33.3064
- proliferation, colorimetric assay [2, 8]: 14.4574 and 14.3192 and 6.786
- proliferation, colorimetric assay [2, 9]: 11.4376 and 9.499 and 3.744
- proliferation, colorimetric assay [2, 10]: 3.105 and 1.155
- Supplementary Figure 3A - BaF3-ITD+IL3 proliferation [3, 4]: 91.5686
- Supplementary Figure 3A - BaF3-ITD+IL3 proliferation [3, 5]: 100.9
- Supplementary Figure 3A - BaF3-ITD+IL3 proliferation [3, 6]: 105.72 and 98.3726 and 124.683
- Supplementary Figure 3A - BaF3-ITD+IL3 proliferation [3, 7]: 110.807 and 113.1 and 132.819
- Supplementary Figure 3A - BaF3-ITD+IL3 proliferation [3, 8]: 106.186 and 111.038 and 133.216
- Supplementary Figure 3A - BaF3-ITD+IL3 proliferation [3, 9]: 110.669 and 139.596
- Supplementary Figure 3A - BaF3-ITD+IL3 proliferation [3, 10]: 9.826 and 146.156
- Supplementary Figure 3A - BaF3-ITD+IL3 proliferation ([3]; concentration 5000 (unit not given), listed as Midostuarin): 3.94 and -0.5106
